From the supplement of paper PMC10307832

Assays:
Assay in all cases: relative viability (nuclei count vs DMSO), 5 days (fraction); higher = more cells survive
NPK76-II-72-1 = compound: CC1CC(=O)N(C2=CN=C(N=C2N1C3CCCC3)NC4=C(C=C(C=C4)C(=O)NC5CCN(CC5)C)OC)C [NPK76-II-72-1]
In short: (§1)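 Cells of lung cancer lines were placed in 1536-well plates and kept overnight at 37 °C. Pinning then delivered five library-drug doses (not always all listed), spaced by √10, onto plates anchored with vehicle, and the cells were left 5 days without changing medium. One step fixed, permeabilised and stained them with Hoechst, and MetaXpress counted nuclei in 4× images. Viability, as a median over plates, is treated-well nuclei divided by vehicle-well nuclei, with acceptance only at control CV below 25% and at least one doubling.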

BI-2536 = compound: CC[C@@H]1C(=O)N(C)c2cnc(Nc3ccc(C(=O)NC4CCN(C)CC4)cc3OC)nc2N1C1CCCC1 [BI-2536]
In short: as §1

[1] = compound: CC1CC(=O)N(C2=CN=C(N=C2N1C3CCCC3)NC4=C(C=C(C=C4)C(=O)NC5CCN(CC5)C)OC)C [NPK76-II-72-1] + CC1(C)CCC(c2ccc(Cl)cc2)=C(CN2CCN(c3ccc(C(=O)NS(=O)(=O)c4ccc(N[C@H](CCN5CCOCC5)CSc5ccccc5)c(S(=O)(=O)C(F)(F)F)c4)cc3)CC2)C1 [Navitoclax] (partner 0.5 µM)
In short: (§2)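 Relative viability is defined as nuclei in treated wells over nuclei in vehicle wells. Duplicate plates were run and medians reported. Lung cancer cell lines in 1536-well plates were dosed by pin tool one day after seeding, with one drug or with a fixed anchor-drug dose plus five library-drug doses (not always all listed) in √10 steps, and nuclei were counted after 5 days.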

BI-2536 + Phenformin = compound: CC[C@@H]1C(=O)N(C)c2cnc(Nc3ccc(C(=O)NC4CCN(C)CC4)cc3OC)nc2N1C1CCCC1 [BI-2536] + N=C(N)NC(=N)NCCc1ccccc1 [Phenformin] (partner 250 µM)
In short: as §2

Cell Line | relative viability (NPK76-II-72-1; 0.01 µM) | relative viability (NPK76-II-72-1; 0.03162 µM) | relative viability (NPK76-II-72-1; 0.1 µM) | relative viability (NPK76-II-72-1; 0.3162 µM) | relative viability (NPK76-II-72-1; 1 µM) | relative viability (BI-2536; 0.01 µM) | relative viability (BI-2536; 0.03162 µM) | relative viability (BI-2536; 0.1 µM) | relative viability (BI-2536; 0.3162 µM) | relative viability (BI-2536; 1 µM) | relative viability ([1]; first compound 0.01 µM) | relative viability ([1]; first compound 0.03162 µM) | relative viability ([1]; first compound 0.1 µM) | relative viability ([1]; first compound 0.3162 µM) | relative viability ([1]; first compound 1 µM) | relative viability (BI-2536 + Phenformin; first compound 0.01 µM) | relative viability (BI-2536 + Phenformin; first compound 0.03162 µM) | relative viability (BI-2536 + Phenformin; first compound 0.1 µM) | relative viability (BI-2536 + Phenformin; first compound 0.3162 µM) | relative viability (BI-2536 + Phenformin; first compound 1 µM)
BEN | 0.941 | 0.928 | 0.903 | 0.904 | 0.996 | 0.948 | 0.982 | 0.671 | 0.386 | 0.355 | 0.0828 | 0.0731 | 0.0563 | 0.0637 | 0.063 | 0.262 | 0.249 | 0.207 | 0.231 | 0.186
EMC-BAC-2 | 0.916 | 0.96 | 0.981 | 0.921 | 1.05 | 0.979 | 1.03 | 0.505 | 0.238 | 0.246 | 1.13 | 1.17 | 1.1 | 1.17 | 1.19 | 0.547 | 0.477 | 0.352 | 0.155 | 0.208
LU99A | 0.882 | 0.946 | 0.945 | 0.875 | 1.02 | 0.939 | 0.815 | 0.449 | 0.245 | 0.214 | 0.804 | 0.766 | 0.785 | 0.889 | 0.692 | 0.816 | 0.823 | 0.212 | 0.197 | 0.2
NCI-H2170 | 0.939 | 0.977 | 0.928 | 0.71 | 1.11 | 0.971 | 0.896 | 0.273 | 0.204 | 0.204 | 0.615 | 0.558 | 0.565 |  | 0.643 | 0.435 | 0.413 | 0.34 | 0.167 | 0.202
NCI-H2347 | 0.924 | 1.05 | 0.948 | 0.982 | 1.05 | 0.942 | 1.07 | 0.941 | 0.483 | 0.43 | 0.761 | 0.698 | 0.728 | 0.789 | 0.868 |  | 0.28 | 0.382 | 0.276 | 0.211
NCI-H1993 | 0.827 | 0.981 | 0.942 | 0.89 | 1.09 | 1.04 | 0.793 | 0.543 | 0.684 | 0.587 | 1.05 | 0.969 | 0.884 | 0.706 | 1.01 | 0.493 | 0.432 | 0.52 | 0.41 | 0.475
NCI-H322M | 0.908 | 0.997 | 1.01 | 0.999 | 1.01 | 0.99 | 0.889 | 0.725 | 0.497 | 0.298 | 1.19 | 1.2 | 1.18 | 1.24 | 1.32 | 0.76 | 0.725 | 0.497 | 0.341 | 0.251
NCI-H838 | 0.912 | 1.03 | 0.954 | 0.959 | 1.02 | 0.99 | 0.946 | 0.826 | 0.164 | 0.162 | 1.11 | 1.19 | 1.19 | 1.09 | 1.11 | 0.571 | 0.329 | 0.116 | 0.116 | 0.105
HARA | 0.922 | 0.987 | 0.845 | 0.924 | 1.05 | 1.01 | 1.15 | 0.823 | 0.141 | 0.159 | 1.12 | 1.14 | 1.13 | 1.08 | 1.15 | 0.511 | 0.55 | 0.376 | 0.049 | 0.0462
NCI-H2087 | 0.98 | 1.03 | 0.868 | 0.889 | 1.05 | 1.11 | 1.06 | 0.607 | 0.105 | 0.133 | 0.972 | 1.02 | 0.997 | 0.919 | 1.06 | 0.477 | 0.503 | 0.173 | 0.0945 | 0.102
NCI-H1437 | 0.981 | 0.972 | 0.952 | 0.964 | 1.01 | 0.981 | 0.911 | 0.804 | 0.184 | 0.174 | 1.17 | 1.11 | 0.967 | 0.978 | 1.13 | 0.289 | 0.23 | 0.145 | 0.143 | 0.154
NCI-H1792 | 0.874 | 0.895 | 0.906 | 0.857 | 1.04 | 1.03 | 0.851 | 0.416 | 0.168 | 0.114 | 0.599 | 0.553 | 0.606 | 0.624 | 0.726 | 0.451 | 0.49 | 0.301 | 0.0773 | 0.0991
ChaGo-K-1 | 0.985 | 0.951 | 1.04 | 0.941 | 0.921 | 0.911 | 0.965 | 0.674 | 0.239 | 0.197 | 0.937 | 0.955 | 1.09 | 0.944 | 0.64 | 0.492 | 0.507 | 0.238 | 0.158 | 0.148
COR-L23 | 0.977 | 1.06 | 0.998 | 1.01 | 1.01 | 1.09 | 1.13 | 0.333 | 0.136 | 0.135 | 0.823 | 0.969 | 0.92 | 0.995 | 1.03 | 0.434 | 0.371 | 0.116 | 0.0966 | 0.0886
COR-L 105 | 0.976 | 0.932 | 0.977 | 0.878 | 0.965 | 0.904 | 0.909 | 0.665 | 0.252 | 0.343 | 0.801 | 0.742 | 0.799 | 0.717 | 0.761 | 0.507 | 0.483 | 0.311 | 0.215 | 0.21
LK-2 | 0.961 | 0.912 | 0.962 | 0.832 | 1.01 | 0.832 | 0.887 | 0.623 | 0.128 | 0.207 | 0.769 | 0.83 | 0.961 | 0.723 | 0.879 | 0.473 | 0.362 | 0.165 | 0.15 | 0.163
